{"source": "patent US6528481B1", "about": "“NG2/HM proteoglycan-binding peptides that home to angiogenic vasculature and related methods” (The Burnam Institute, priority 1999, dated 2003)", "key": {"[1]": {"molecular_target": "NG2 (Rattus norvegicus, UniProt Q00657)", "sequence (Q00657 30-2326)": "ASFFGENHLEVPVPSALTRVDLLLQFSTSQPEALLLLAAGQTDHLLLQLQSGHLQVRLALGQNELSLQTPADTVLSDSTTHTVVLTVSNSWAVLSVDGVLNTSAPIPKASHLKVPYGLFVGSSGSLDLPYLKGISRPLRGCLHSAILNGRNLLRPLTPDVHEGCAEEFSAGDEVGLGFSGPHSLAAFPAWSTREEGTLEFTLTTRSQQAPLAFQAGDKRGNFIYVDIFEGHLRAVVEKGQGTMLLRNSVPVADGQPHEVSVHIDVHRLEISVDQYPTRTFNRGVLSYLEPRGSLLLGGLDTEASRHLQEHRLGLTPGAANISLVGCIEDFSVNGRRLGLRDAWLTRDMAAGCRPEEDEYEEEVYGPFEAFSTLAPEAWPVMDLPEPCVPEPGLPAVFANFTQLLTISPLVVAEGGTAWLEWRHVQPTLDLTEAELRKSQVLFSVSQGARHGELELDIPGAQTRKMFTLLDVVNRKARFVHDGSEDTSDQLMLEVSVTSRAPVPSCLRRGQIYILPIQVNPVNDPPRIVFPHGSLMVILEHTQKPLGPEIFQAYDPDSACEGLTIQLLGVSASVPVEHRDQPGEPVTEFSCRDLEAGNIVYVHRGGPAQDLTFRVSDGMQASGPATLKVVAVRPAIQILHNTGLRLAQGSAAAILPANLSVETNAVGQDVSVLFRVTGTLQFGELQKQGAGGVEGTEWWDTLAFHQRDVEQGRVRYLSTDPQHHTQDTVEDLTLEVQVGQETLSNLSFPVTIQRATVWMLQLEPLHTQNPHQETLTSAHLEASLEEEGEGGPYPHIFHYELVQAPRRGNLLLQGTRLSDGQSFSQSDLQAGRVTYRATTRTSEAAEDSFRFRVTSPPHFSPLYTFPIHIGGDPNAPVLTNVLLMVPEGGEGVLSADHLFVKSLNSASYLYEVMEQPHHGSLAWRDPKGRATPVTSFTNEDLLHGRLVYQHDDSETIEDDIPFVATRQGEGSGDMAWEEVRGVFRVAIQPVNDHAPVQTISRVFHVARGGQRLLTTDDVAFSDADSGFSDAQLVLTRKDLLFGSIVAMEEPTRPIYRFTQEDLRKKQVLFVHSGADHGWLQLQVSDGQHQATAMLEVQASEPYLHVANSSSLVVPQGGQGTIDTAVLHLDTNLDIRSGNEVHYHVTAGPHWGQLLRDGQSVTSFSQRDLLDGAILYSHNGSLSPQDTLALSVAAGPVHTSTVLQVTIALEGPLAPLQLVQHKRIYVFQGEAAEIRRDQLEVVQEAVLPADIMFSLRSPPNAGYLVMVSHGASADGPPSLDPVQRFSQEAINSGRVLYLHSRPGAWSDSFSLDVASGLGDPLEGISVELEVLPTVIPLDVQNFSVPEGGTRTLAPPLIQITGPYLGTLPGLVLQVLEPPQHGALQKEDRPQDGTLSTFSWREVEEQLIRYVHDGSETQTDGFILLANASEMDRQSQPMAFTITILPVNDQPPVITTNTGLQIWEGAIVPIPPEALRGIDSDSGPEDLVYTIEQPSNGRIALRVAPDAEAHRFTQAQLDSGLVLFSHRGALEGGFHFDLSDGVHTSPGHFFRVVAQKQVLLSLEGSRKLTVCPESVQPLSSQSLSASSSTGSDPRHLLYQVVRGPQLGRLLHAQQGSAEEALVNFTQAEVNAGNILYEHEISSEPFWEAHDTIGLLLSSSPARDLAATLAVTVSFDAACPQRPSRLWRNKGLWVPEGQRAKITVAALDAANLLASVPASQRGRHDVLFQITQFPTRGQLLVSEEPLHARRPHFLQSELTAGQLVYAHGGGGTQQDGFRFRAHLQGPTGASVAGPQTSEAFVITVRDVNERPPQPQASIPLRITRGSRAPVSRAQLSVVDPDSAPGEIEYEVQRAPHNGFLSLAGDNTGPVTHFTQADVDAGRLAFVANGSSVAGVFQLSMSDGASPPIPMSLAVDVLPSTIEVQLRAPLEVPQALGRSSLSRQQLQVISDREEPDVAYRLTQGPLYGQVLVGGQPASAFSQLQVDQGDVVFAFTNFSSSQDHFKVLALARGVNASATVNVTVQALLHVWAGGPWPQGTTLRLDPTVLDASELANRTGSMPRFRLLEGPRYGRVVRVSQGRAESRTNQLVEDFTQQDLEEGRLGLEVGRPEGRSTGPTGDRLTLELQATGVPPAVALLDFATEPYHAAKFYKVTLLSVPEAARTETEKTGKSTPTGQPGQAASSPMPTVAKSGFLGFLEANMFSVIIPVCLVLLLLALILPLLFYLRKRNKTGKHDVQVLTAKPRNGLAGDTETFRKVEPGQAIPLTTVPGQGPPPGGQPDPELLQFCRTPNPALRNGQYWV", "assay": "Binding of peptide to NG2 (no method given)"}, "[2]": {"test_system": "recombinant fragment of rat NG2 (NG2ECΔ3)", "sequence (Q00657 30-1450 limits assumed, stated change not applied)": "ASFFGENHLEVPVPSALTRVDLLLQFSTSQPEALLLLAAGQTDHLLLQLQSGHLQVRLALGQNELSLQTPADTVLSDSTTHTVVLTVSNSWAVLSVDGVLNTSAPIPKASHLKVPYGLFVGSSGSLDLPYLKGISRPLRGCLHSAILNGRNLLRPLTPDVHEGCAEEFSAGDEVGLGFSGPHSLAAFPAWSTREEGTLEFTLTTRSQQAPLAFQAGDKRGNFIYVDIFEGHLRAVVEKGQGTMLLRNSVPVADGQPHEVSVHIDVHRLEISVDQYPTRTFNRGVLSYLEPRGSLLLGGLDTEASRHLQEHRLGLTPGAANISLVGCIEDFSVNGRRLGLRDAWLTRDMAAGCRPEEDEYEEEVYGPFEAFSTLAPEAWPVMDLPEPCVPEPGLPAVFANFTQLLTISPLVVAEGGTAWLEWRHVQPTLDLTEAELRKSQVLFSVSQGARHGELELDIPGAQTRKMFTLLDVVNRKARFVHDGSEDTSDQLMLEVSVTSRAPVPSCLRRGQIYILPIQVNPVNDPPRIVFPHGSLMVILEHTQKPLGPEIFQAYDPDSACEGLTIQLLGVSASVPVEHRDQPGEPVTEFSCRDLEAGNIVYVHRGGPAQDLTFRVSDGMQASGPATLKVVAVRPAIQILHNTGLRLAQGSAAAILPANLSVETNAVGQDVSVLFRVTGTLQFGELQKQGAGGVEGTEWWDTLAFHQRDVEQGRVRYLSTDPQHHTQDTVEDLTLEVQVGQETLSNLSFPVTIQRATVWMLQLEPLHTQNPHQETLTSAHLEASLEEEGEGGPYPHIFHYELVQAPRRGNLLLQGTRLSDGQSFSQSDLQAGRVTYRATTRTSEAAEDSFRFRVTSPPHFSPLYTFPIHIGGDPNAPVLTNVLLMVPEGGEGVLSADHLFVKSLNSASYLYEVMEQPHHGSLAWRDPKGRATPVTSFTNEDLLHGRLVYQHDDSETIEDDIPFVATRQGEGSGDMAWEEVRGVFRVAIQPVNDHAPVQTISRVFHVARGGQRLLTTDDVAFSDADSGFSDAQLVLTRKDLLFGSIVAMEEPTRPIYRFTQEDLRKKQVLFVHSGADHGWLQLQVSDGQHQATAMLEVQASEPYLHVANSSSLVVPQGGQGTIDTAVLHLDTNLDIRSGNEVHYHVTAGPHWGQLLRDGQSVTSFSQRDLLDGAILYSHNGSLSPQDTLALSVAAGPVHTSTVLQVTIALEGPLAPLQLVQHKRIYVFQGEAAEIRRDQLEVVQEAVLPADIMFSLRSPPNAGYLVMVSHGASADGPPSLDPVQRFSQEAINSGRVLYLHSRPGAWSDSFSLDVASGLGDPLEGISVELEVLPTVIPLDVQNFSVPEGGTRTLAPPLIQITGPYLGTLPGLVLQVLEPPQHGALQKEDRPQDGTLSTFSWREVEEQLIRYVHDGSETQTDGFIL", "assay": "Biopanning of linear decapeptide phage library on NG2-coated wells", "format": "binding", "settings": "for selection/enrichment of NG2-binding sequences in in vitro panning: five successive rounds on NG2-coated wells", "description": "To identify peptide motifs capable of interacting with NG2, recombinant NG2 fragments consisting of the N-terminal two-thirds of the extracellular domain of NG2 proteoglycan were generated. Briefly, a recombinant fragment of rat NG2 consisting of the N-terminal two-thirds of the extracellular domain (NG2ECΔ3) was purified from transfected human embryonic kidney 293 cells as described (Tillet et al., J. Biol. Chem. 272:10769-10776 (1997)). Recombinant NG2 diluted in phosphate buffered saline (PBS) (2 μg NG2/well) was coated onto microtiter wells overnight at 4° C. Wells were blocked with 2% bovine serum albumin (BSA) in PBS for 1 hr at room temperature. For biopanning, phage (1×10^11 TU) from a linear decapeptide phage library diluted in 2% BSA were added to NG2-coated wells and incubated for 2 hr at room temperature. Wells were washed with PBS containing 0.1% TWEEN-20 to remove unbound phage. Bound phage were recovered by direct infection of wells with exponentially growing K91kan bacteria, followed by phage amplification overnight at 37° C. Amplified phage were then subjected to four subsequent rounds of selection on NG2-coated wells. Phage binding was quantified by counting colonies from aliquots of phage-infected bacteria removed from NG2-coated wells. Phage were sequenced from randomly selected clones as described previously (Rajotte et al., J. Clin. Invest. […]:430-437 (1998)).\nTo identify peptide motifs capable of interacting with NG2, the recombinant NG2 fragments were used to select phage clones from a random decapeptide phage display library. Bound phage were isolated and used for successive rounds of panning on the NG2 proteoglycan. Five successive rounds of biopanning were performed. Random clones were sequenced from rounds II to V. Sequence analysis from the final three rounds of panning are shown in Table 1. In parentheses is the number of clones displaying the same sequence. The sequences shown in column III of Table 1 are referenced as SEQ ID NOS:1-15."}, "[3]": {"test_system": "NG2Δ3", "sequence (Q00657 30-1450 limits assumed, stated change not applied)": "as above", "assay": "Inhibition of phage binding to NG2Δ3-coated wells by GST-peptide fusion proteins", "parameters": "species or system rat", "settings": "increasing concentrations of GST protein; for effect on binding of TAASGVRSMH-phage to NG2 coated wells: FIG. 3A; for effect on binding of LTLRWVGLMS-phage to NG2: FIG. 3B", "experimental": "Binding of individual phage clones or an aliquot of unselected phage library control to NG2 or BSA-coated control wells was performed as described above using 1×10^9 input phage/well. For competition studies, phage incubations were performed in the presence of increasing concentrations of soluble NG2 or GST-fusion proteins.\nGST-fusion proteins containing the decapeptide inserts were constructed as previously described (Rajotte et al., J. Clin. Invest. 102:430-437 (1998)). Briefly, peptide inserts were amplified by polymerase chain reaction (PCR) from the phage using specific M13 primers. PCR products were then digested with BamHI and EcoRI and inserted into the pGEX2TK vector. Fusion proteins were produced and purified according to the manufacturer's instructions (Pharmacia Biotech Inc.; Piscataway N.J.).\nGST-peptide fusion proteins containing one of the two NG2-binding motifs, TAASGVRSMH (SEQ ID NO:1) or LTLRWVGLMS (SEQ ID NO:2), were tested for their ability to inhibit binding of phage to NG2Δ3-coated wells. Purified TAASGVRSMH-phage and LTLRWVGLMS-phage were incubated in NG2Δ3-coated wells in the presence of increasing concentrations of GST-TAASGVRSMH fusion protein, GST-LTLRWVGLMS fusion protein, or GST alone, and phage binding was quantified. Results shown in FIG. 3 are representative of three independent experiments and error bars show S.E.M. of the mean from triplicate platings of duplicate wells. The differences indicated by “*” are considered highly significant by student t test (p<0.01)."}, "[4]": {"test_system": "NG2Δ3", "assay": "Solid-phase assay: binding of soluble NG2Δ3 to immobilized GST-peptide fusion proteins", "parameters": "species or system rat", "settings": "soluble fusion protein, increasing concentrations (50 mg in FIG. 4A)", "experimental": "Solid-phase assays were performed as described previously (Burg et al., supra, 1996). Briefly, fusion proteins (2 μg/well) were coated onto microtiter wells overnight at 4° C. Wells were blocked with 2% BSA in PBS and incubated with soluble NG2Δ3 (1 μg/well) for 2 hr at room temperature. After washing, wells were then incubated with an anti-NG2 polyclonal antibody followed by washing and incubation with an ^125I-labeled goat anti-rabbit IgG. After final washing, bound radioactivity was determined using a gamma counter. For competition studies, soluble NG2Δ3 was preincubated 15 min with increasing concentrations of soluble GST-fusion proteins prior to incubation on wells coated with GST-fusion protein.\nThe ability of soluble NG2 to bind to GST-TAASGVRSMH and GST-LTLRWVGLMS was tested by using a solid phase assay. Purified NG2Δ3 was incubated in wells coated with GST-TAASGVRSMH or GST-LTLRWVGLMS in the absence of inhibitor, or after preincubation with 50 mg of soluble GST-TAASGVRSMH, GST-LTLRWVGLMS or GST alone. Binding of NG2Δ3 was determined, and the results shown in FIG. 4 are representative of three independent experiments. Error bars show S.E.M. of the mean from triplicate wells. The differences indicated by “*” are considered significant by student t test (p<0.05). The differences indicated by “**” are considered highly significant by student t test (p<0.01)."}}, "note": "Where no end group is shown, it is not given here.", "data": [{"substance": "CLSGSLSC", "values": [{"measurement": "binding to NG2", "setting": "[1]", "value": "found to bind to NG2"}]}, {"substance": "GGGTRAGMKY", "values": [{"measurement": "number of clones displaying the same sequence", "setting": "[2]; panning round III", "value": "GGGTRAGMKY (SEQ ID NO: 3) (2)"}]}, {"substance": "GST-LTLRWVGLMS: GST-fusion protein containing the decapeptide insert LTLRWVGLMS ({GST}-LTLRWVGLMS)", "values": [{"measurement": "effect on binding of TAASGVRSMH-phage to NG2 coated wells", "setting": "[3]", "value": "inhibited"}, {"measurement": "effect on binding of LTLRWVGLMS-phage to NG2", "setting": "[3]", "value": "inhibited the binding"}, {"measurement": "effect of preincubation on binding of NG2 to wells coated with GST-TAASGVRSMH", "setting": "[4]", "value": "inhibited binding"}]}, {"substance": "GST-TAASGVRSMH: GST-fusion protein containing the decapeptide insert TAASGVRSMH ({GST}-TAASGVRSMH)", "values": [{"measurement": "effect on binding of TAASGVRSMH-phage to NG2 coated wells", "setting": "[3]", "value": "dose-dependent decrease in binding"}, {"measurement": "effect on binding of LTLRWVGLMS-phage to NG2", "setting": "[3]", "value": "inhibited the binding"}, {"measurement": "effect of preincubation on binding of NG2 to wells coated with GST-TAASGVRSMH", "setting": "[4]", "value": "dose-dependent decrease in binding"}]}, {"substance": "LTLRWVGLMS", "values": [{"measurement": "selection/enrichment of NG2-binding sequences in in vitro panning", "setting": "[2]", "value": "specifically enriched in later rounds of in vitro panning"}, {"measurement": "number of clones displaying the same sequence", "setting": "[2]; panning round IV", "value": "LTLRWVGLMS (10)"}, {"measurement": "number of clones displaying the same sequence", "setting": "[2]; panning round V", "value": "LTLRWVGLMS (SEQ ID NO: 2) (7)"}]}, {"substance": "TAASGVRSMH", "values": [{"measurement": "selection/enrichment of NG2-binding sequences in in vitro panning", "setting": "[2]", "value": "specifically enriched in later rounds of in vitro panning"}, {"measurement": "number of clones displaying the same sequence", "setting": "[2]; panning round IV", "value": "TAASGVRSMH (16)"}, {"measurement": "number of clones displaying the same sequence", "setting": "[2]; panning round V", "value": "TAASGVRSMH (SEQ ID NO: 1) (8)"}]}, {"substance": "control GST protein: control GST protein containing no peptide insert [reference compound]", "values": [{"measurement": "effect on binding of TAASGVRSMH-phage to NG2 coated wells", "setting": "[3]", "value": "little effect on binding"}, {"measurement": "effect on binding of LTLRWVGLMS-phage to NG2", "setting": "[3]", "value": "no significant effect on the binding"}]}]}
